Patent US10370401B2, “Substituted nucleosides, nucleotides and analogs thereof” (Alios BioPharma, Inc., priority 2013, dated 2019)
Where two headings read alike, the source gives them in different places.

How the values were obtained:
Human rhinovirus 1B = test: Picornavirus assay (CPE, CellTiter-Glo, HeLa-OHIO cells); format: cell-based; settings: Rhinovirus A, 96 h
subgenomic HCV replicon = test: HCV replicon assay (Huh-7, luciferase reporter); format: cell-based; settings: Hepatitis C virus
[1] = target: human rhinovirus 16 polymerase (HRV16pol) (Human rhinovirus 16, UniProt Q82122); test: biochemical; settings: HRV16pol, 2.5 h at 30° C., mean of several independent experiments; read-out: IC50
Chain of human rhinovirus 16 polymerase (HRV16pol) (Q82122 1694-2153 limits assumed): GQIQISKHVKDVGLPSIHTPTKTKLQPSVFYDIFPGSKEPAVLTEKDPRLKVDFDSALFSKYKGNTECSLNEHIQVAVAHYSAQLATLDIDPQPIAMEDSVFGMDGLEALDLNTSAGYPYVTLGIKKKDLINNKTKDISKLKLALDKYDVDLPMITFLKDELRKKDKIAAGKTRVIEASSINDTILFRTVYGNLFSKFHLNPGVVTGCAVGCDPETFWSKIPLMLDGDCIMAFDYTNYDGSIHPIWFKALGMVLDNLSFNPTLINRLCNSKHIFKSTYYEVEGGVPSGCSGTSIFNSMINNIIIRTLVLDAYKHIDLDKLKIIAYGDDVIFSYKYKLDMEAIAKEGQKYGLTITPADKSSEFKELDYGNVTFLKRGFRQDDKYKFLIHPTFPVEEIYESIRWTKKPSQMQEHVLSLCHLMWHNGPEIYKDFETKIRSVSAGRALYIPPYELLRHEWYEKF

NS5B570-Con1 (Delta-21) = NS5B570-Con1 (Delta-21) (Hepatitis C virus genotype 1b, UniProt Q9WMX2); test: biochemical; parameters: species or system HCV
[2] = Human rhinovirus 1B, HeLa-OHIO cells, 4 d at 33° C., read-out: EC50
[3] = Huh-7 HCV replicon cells, luciferase, 72 hours, read-out: EC50

Compound | EC50 (Human rhinovirus 1B; [2]) [µM] | EC50 (subgenomic HCV replicon; [3]) [µM] | IC50 [1] [µM] | IC50 (NS5B570-Con1 (Delta-21)) [µM] | also measured
CCOc1nc(N)nc2c1ncn2[C@@H]1O[C@](F)(COP(=O)(N[C@@H](C)C(=O)OCC(C)(C)C)Oc2ccccc2)[C@@H](F)[C@@]1(C)O (some centres unmarked) [Compound 21] | – | – | – | – | EC50 (Human rhinovirus 1B): < 1 µM; EC50 (subgenomic HCV replicon; Huh-7, 72 h): 1 to 10 µM
CCOc1nc(N)nc2c1ncn2[C@@H]1O[C@](F)(COP(=O)(N[C@@H](C)C(=O)OC(C)C)Oc2ccccc2)[C@@H](F)[C@@]1(C)O (some centres unmarked) [Compound 22] | – | – | – | – | EC50 (Human rhinovirus 1B): 1 to 10 µM; EC50 (subgenomic HCV replicon; Huh-7, 72 h): 1 to 10 µM
CCOc1nc(N)nc2c1ncn2[C@@H]1O[C@](CF)(COP(=O)(N[C@@H](C)C(=O)OC2CCCCC2)Oc2ccccc2)[C@@H](O)[C@@]1(C)O (some centres unmarked) [Compound 36] | – | – | – | – | EC50 (Human rhinovirus 1B): < 1 µM; EC50 (subgenomic HCV replicon; Huh-7, 72 h): < 1 µM
CC(C)OC(=O)OCOP(=O)(OCOC(=O)OC(C)C)OC[C@@]1(CCl)O[C@@H](n2ccc(=O)[nH]c2=O)[C@](C)(O)[C@@H]1O [Compound 43] | 10 to 100 | < 1 | – | – | –
CC(C)OC(=O)OCOP(=O)(OCOC(=O)OC(C)C)OC[C@@]1(CF)O[C@@H](n2ccc(=O)n(COC(=O)C(N)C(C)C)c2=O)[C@](C)(O)[C@@H]1O (some centres unmarked) [Compound 52] | – | – | – | – | EC50 (Human rhinovirus 1B): < 1 µM; EC50 (subgenomic HCV replicon; Huh-7, 72 h): < 1 µM
CCOc1nc(N)nc2c1ncn2[C@@H]1O[C@](F)(COP(=O)(OCOC(=O)OC(C)C)OCOC(=O)OC(C)C)[C@@H](F)[C@@]1(C)O [Compound 57] | < 1 | < 1 | – | – | –
C#C[C@@]1(O)[C@H](O)[C@@](CF)(COP(=O)(OCOC(=O)OC(C)C)OCOC(=O)OC(C)C)O[C@H]1n1cnc2c(N)ncnc21 [Compound 63] | < 1 | 1 to 10 | – | – | –
C#C[C@@]1(O)[C@H](O)[C@@](CCl)(COP(=O)(OCOC(=O)OC(C)C)OCOC(=O)OC(C)C)O[C@H]1n1cnc2c(N)ncnc21 [Compound 64] | 1 to 10 | 10 to 100 | – | – | –
COC(=O)OCOP(=O)(OCOC(=O)OC)OC[C@@]1(CF)O[C@@H](n2ccc(=O)[nH]c2=O)[C@](C)(O)[C@@H]1O [Compound 65] | 10 to 100 | 10 to 100 | – | – | –
CC(=O)OCOP(=O)(OCOC(C)=O)OC[C@@]1(CF)O[C@@H](n2ccc(=O)[nH]c2=O)[C@](C)(O)[C@@H]1O [Compound 67] | – | 10 to 100 | – | – | –
CC(C)C(=O)OCOP(=O)(OCOC(=O)C(C)C)OC[C@@]1(CF)O[C@@H](n2ccc(=O)[nH]c2=O)[C@](C)(O)[C@@H]1O [Compound 70] | 1 to 10 | 1 to 10 | – | – | –
CCOC(=O)OCOP(=O)(OCOC(=O)OCC)OC[C@@]1(CF)O[C@@H](n2ccc(=O)n(COC(=O)C(N)C(C)C)c2=O)[C@](C)(O)[C@@H]1O (some centres unmarked) [Compound 71] | – | – | – | – | EC50 (Human rhinovirus 1B): 1 to 10 µM; EC50 (subgenomic HCV replicon; Huh-7, 72 h): 1 to 10 µM
C=C[C@]1(CO)O[C@@H](n2ccc(N)nc2=O)C(F)(F)[C@@H]1O [Compound 75] | 1 to 10 | – | – | – | EC50 (subgenomic HCV replicon; Huh-7, 72 h): 10 to 100 µM
CC(C)OC(=O)OCOP(=O)(OCOC(=O)OC(C)C)OC[C@@]1(CF)O[C@@H](n2cnc3c(N)ncnc32)[C@](C)(O)[C@@H]1O [Compound 84] | < 1 | 1 to 10 | – | – | –
[N-]=[N+]=NC[C@]1(CO)O[C@@H](n2ccc(N)nc2=O)[C@H](F)[C@@H]1O [Compound 106] | 1 to 10 | 10 to 100 | – | – | –
CC(C)(CO)C(=O)SCCOP(=O)(NCc1ccccc1)OC[C@@]1(CF)O[C@@H](n2ccc(=O)[nH]c2=O)[C@](C)(O)[C@@H]1O (some centres unmarked) [Compound 280] | 10 to 100 | 10 to 100 | – | – | –
CC(C)OC(=O)OCOP(=O)(OCOC(=O)OC(C)C)OC[C@@]1(CF)O[C@@H](n2ccc(=O)[nH]c2=O)[C@](C)(O)[C@@H]1OC(=O)[C@H](C)N [Compound 281] | – | – | – | – | EC50 (Human rhinovirus 1B): < 1 µM; EC50 (subgenomic HCV replicon; Huh-7, 72 h): < 1 µM
CC(C)OC(=O)OCOP(=O)(OCOC(=O)OC(C)C)OC[C@@]1(CF)O[C@@H](n2ccc(=O)[nH]c2=O)[C@](C)(O)[C@@H]1OC(=O)CN [Compound 282] | – | – | – | – | EC50 (Human rhinovirus 1B): < 1 µM; EC50 (subgenomic HCV replicon; Huh-7, 72 h): < 1 µM
CC(C)OC(=O)[C@H](C)NP(=O)(OCCSC(=O)C(C)(C)CO)OC[C@@]1(CF)O[C@@H](n2ccc(=O)[nH]c2=O)[C@](C)(O)[C@@H]1O (some centres unmarked) [Compound 283] | 10 to 100 | 1 to 10 | – | – | –
CC(C)OC(=O)OCOP(=O)(OCOC(=O)OC(C)C)OC[C@@]1(CF)O[C@@H](n2ccc(=O)n(COP(=O)(O)O)c2=O)[C@](C)(O)[C@@H]1O [Compound 284] | 1 to 10 | 1 to 10 | – | – | –
CC(C)OC(=O)OCOP(=O)(N[C@@H](C)C(=O)OC(C)C)OC[C@@]1(CF)O[C@@H](n2ccc(=O)[nH]c2=O)[C@](C)(O)[C@@H]1O (some centres unmarked) [Compound 286] | 1 to 10 | < 1 | – | – | –
CC(C)(CO)C(=O)SCCOP(=O)(OCCSC(=O)C(C)(C)CO)OC[C@@]1(CF)O[C@@H](n2ccc(=O)[nH]c2=O)[C@](C)(O)[C@@H]1O [Compound 288] | – | – | – | – | EC50 (Human rhinovirus 1B): 10 to 100 µM; EC50 (subgenomic HCV replicon; Huh-7, 72 h): 10 to 100 µM
Nc1ccn([C@@H]2O[C@H](CO)[C@@H](O)[C@]2(O)CF)c(=O)n1 [Compound 295] | 10 to 100 | 1 to 10 | – | – | –
N#C[C@]1(CO)O[C@@H](n2ccc(N)nc2=O)C(F)(F)[C@@H]1O [Compound 298] | 1 to 10 | 10 to 100 | – | – | –

Compound | EC50 (Human rhinovirus 1B; [2]) [µM] | EC50 (subgenomic HCV replicon; [3]) [µM] | IC50 [1] [µM] | IC50 (NS5B570-Con1 (Delta-21)) [µM] | also measured
C#C[C@@]1(O)[C@H](O)[C@@H](COP(=O)(O)OP(=O)(O)OP(=O)(O)O)O[C@H]1n1ccc2c(N)ncnc21 [compound 205] | – | – | < 1 | < 1 | –
C[C@]1(N=[N+]=[N-])[C@H](n2ccc(N)nc2=O)O[C@](F)(COP(=O)(O)OP(=O)(O)OP(=O)(O)O)[C@H]1O [compound 208] | – | – | < 10 | < 1 | –
C=C[C@]1(O)[C@H](n2ccc(=O)[nH]c2=O)O[C@](F)(COP(=O)(O)OP(=O)(O)OP(=O)(O)O)[C@H]1O [compound 236] | – | – | < 10 | 1 to 10 | –
CC[C@]1(O)[C@H](n2ccc(=O)[nH]c2=O)O[C@](F)(COP(=O)(O)OP(=O)(O)OP(=O)(O)O)[C@H]1O [compound 239] | – | – | < 10 | 10 to 100 | –
C[C@]1(O)[C@H](n2cnc3c(N)ncnc32)O[C@](F)(COP(=O)(O)OP(=O)(O)OP(=O)(O)O)[C@H]1O [compound 240] | – | – | < 1 | < 1 | –
C[C@]1(O)[C@H](n2ccc(N)nc2=O)O[C@](C)(COP(=O)(O)OP(=O)(O)OP(=O)(O)O)[C@H]1O [compound 243] | – | – | < 10 | 1 to 10 | –
C[C@@]1(O)[C@H](O)[C@@](CCl)(COP(=O)(O)OP(=O)(O)OP(=O)(O)O)O[C@H]1n1ccc(=O)[nH]c1=O [compound 244] | – | – | < 10 | < 1 | –
C#C[C@@]1(O)[C@H](O)[C@@](CCl)(COP(=O)(O)OP(=O)(O)OP(=O)(O)O)O[C@H]1n1cnc2c(N)ncnc21 [compound 245] | – | – | < 1 | 10 to 100 | –
C[C@@]1(Cl)[C@H](O)[C@@H](COP(=O)(O)OP(=O)(O)OP(=O)(O)O)O[C@H]1n1cnc2c(=O)[nH]c(N)nc21 [compound 246] | – | – | < 1 | < 1 | –
C[C@@]1(O)[C@H](O)[C@@](CN=[N+]=[N-])(COP(=O)(O)OP(=O)(O)OP(=O)(O)O)O[C@H]1n1ccc(=O)[nH]c1=O [compound 249] | – | – | < 100 | 10 to 100 | –
CC#C[C@@]1(O)[C@H](O)[C@@](CF)(COP(=O)(O)OP(=O)(O)OP(=O)(O)O)O[C@H]1n1ccc(=O)[nH]c1=O [compound 252] | – | – | < 10 | 1 to 10 | –
C=CC[C@@]1(O)[C@H](O)[C@@](CF)(COP(=O)(O)OP(=O)(O)OP(=O)(O)O)O[C@H]1n1ccc(=O)[nH]c1=O [compound 253] | – | – | < 10 | 10 to 100 | –
C[C@@]1(O)[C@H](O)[C@@](CF)(COP(=O)(O)OP(=O)(O)OP(=O)(O)O)O[C@H]1n1ccc2c(N)ncnc21 [compound 254] | – | – | < 1 | < 1 | –
C=C=C[C@@]1(O)[C@H](O)[C@@](CF)(COP(=O)(O)OP(=O)(O)OP(=O)(O)O)O[C@H]1n1ccc(=O)[nH]c1=O [compound 255] | – | – | < 10 | 1 to 10 | –
O=c1ccn([C@@H]2O[C@](CF)(COP(=O)(O)OP(=O)(O)OP(=O)(O)O)[C@@H](O)[C@]2(O)CF)c(=O)[nH]1 [compound 256] | – | – | < 10 | 10 to 100 | –
Nc1ccn([C@@H]2O[C@](CF)(COP(=O)(O)OP(=O)(O)OP(=O)(O)O)[C@@H](O)[C@]2(O)CF)c(=O)n1 [compound 258] | – | – | < 1 | 10 to 100 | –
C[C@]1(O)[C@H](n2ccc(=O)[nH]c2=O)O[C@@](COP(=O)(O)OP(=O)(O)OP(=O)(O)O)(C(F)F)[C@H]1O [compound 273] | – | – | < 10 | 10 to 100 | –
Nc1ccn([C@@H]2O[C@H](COP(=O)(O)OP(=O)(O)OP(=O)(O)O)[C@@H](O)[C@]2(O)CF)c(=O)n1 [compound 276] | – | – | < 10 | < 1 | –
C[C@]1(COP(=O)(O)OP(=O)(O)OP(=O)(O)O)O[C@@H](n2ccc(N)nc2=O)C(F)(F)[C@@H]1O [compound 277] | – | – | < 10 | 10 to 100 | –
Nc1ncnc2c1ncn2[C@@H]1O[C@H](COP(=O)(O)OP(=O)(O)OP(=O)(O)O)[C@@H](O)[C@]1(O)CF [compound 278] | – | – | < 100 | 1 to 10 | –
C#C[C@]1(COP(=O)(O)OP(=O)(O)OP(=O)(O)O)O[C@@H](n2ccc(N)nc2=O)C(F)(F)[C@@H]1O [compound 279] | – | – | < 10 | 10 to 100 | –
C[C@]1(CO)O[C@@H](n2ccc(N)nc2=O)C(F)(F)[C@@H]1O [compound 300] | < 1 | 10 to 100 | – | – | –
Nc1ncnc2c1ncn2[C@@H]1O[C@H](CO)[C@@H](O)[C@]1(O)CF [compound 301] | 10 to 100 | < 1 | – | – | –
C=C[C@]1(CO)O[C@@H](n2ccc(N)nc2=O)[C@H](O)[C@@H]1O [compound 303] | 10 to 100 | 1 to 10 | – | – | –
